According to patent US20080009418A1, “Selective Inhibitors” (Alchemia LTD., priority 2004, published 2008):

Columns and labels:
[1] = biological target: T1, Human μ-opioid (MOP) (Homo sapiens, UniProt P35372); assay: Radioligand binding, human μ-opioid (MOP) membranes, FlashPlate, [3H]-Naloxone; details: compound at 10 μM; [3H]-Naloxone
T1 construct: purchased Perkin Elmer Biosignal
Outline: (§1)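 Cloned human receptor membranes were coated onto FlashPlate wells and incubated with radioligand and compound (added from a 0.5 mM DMSO daughter plate) for 1 hour at room temperature in the dark. Scintillation counting gave percent inhibition, with DMSO defining total and reference ligand defining non-specific binding.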

[2] = biological target: T2, Human melanocortin (MC5) (Homo sapiens, UniProt P33032); assay: Radioligand binding, human melanocortin MC5 membranes, FlashPlate, [125I]-NDP-αMSH; details: compound at 10 μM, [125I]-NDP-αMSH
T2 construct: purchased Perkin Elmer Biosignal
Outline: as §1

[3] = biological target: T3, Human κ-Opioid (KOP) (Homo sapiens, UniProt P41145); assay: Radioligand binding, human κ-opioid (KOP) membranes, filtration, [3H]-Diprenorphine; details: compound at 10 μM; [3H]-Diprenorphine
T3 construct: purchased Perkin Elmer Biosignal
Outline: (§2)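 Percent inhibition of radioligand binding measured on recombinant human membranes: NK1 with [125I]-Substance P, KOP with [3H]-Diprenorphine. Incubation 1 h at room temperature, then harvest onto 0.3% PEI-soaked filters, cold Tris-HCl pH 7.4 washes and scintillation counting; non-specific binding from reference ligand wells.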

[4] = biological target: T4, Human opioid (ORL1) (Homo sapiens, UniProt P41146); assay: Radioligand binding, human opioid ORL1 membranes, FlashPlate, [125I]-Nociceptin; details: compound at 10 μM; [125I]-Nociceptin
T4 construct: purchased Perkin Elmer Biosignal
Outline: as §1

[5] = biological target: T5, Human δ-opioid (DOP) (Homo sapiens, UniProt P41143); assay: Radioligand binding, human δ-opioid (DOP) membranes, FlashPlate, [3H]-Bremazocine; details: compound at 10 μM; [3H]-Bremazocine
T5 construct: purchased Perkin Elmer Biosignal
Outline: as §1

[6] = biological target: T6, Human Melanocortin (MC3) (Homo sapiens, UniProt P41968); assay: Radioligand binding, human melanocortin MC3 membranes, FlashPlate, [125I]-NDP-αMSH; details: compound at 10 μM; [125I]-NDP-αMSH
T6 construct: purchased Perkin Elmer Biosignal
Outline: as §1

[7] = biological target: T7, Human melanin-concentrating hormone (MCH1) (Homo sapiens, UniProt Q99705); assay: Radioligand binding, human melanin-concentrating hormone MCH1 membranes, FlashPlate, [125I]-S36057; details: compound at 10 μM; [125I]-S36057
T7 construct: purchased Perkin Elmer Biosignal
Outline: as §1

[8] = biological target: T8, Mouse urotensin (mUR2) (Mus musculus, UniProt Q8VIH9); assay: Radioligand binding, mouse urotensin mUR2 membranes, FlashPlate, [125I]-Urotensin II; details: compound at 10 μM; [125I]-Urotensin II
T8 construct: purchased Perkin Elmer Biosignal
T8 sequence (Q8VIH9 1-385): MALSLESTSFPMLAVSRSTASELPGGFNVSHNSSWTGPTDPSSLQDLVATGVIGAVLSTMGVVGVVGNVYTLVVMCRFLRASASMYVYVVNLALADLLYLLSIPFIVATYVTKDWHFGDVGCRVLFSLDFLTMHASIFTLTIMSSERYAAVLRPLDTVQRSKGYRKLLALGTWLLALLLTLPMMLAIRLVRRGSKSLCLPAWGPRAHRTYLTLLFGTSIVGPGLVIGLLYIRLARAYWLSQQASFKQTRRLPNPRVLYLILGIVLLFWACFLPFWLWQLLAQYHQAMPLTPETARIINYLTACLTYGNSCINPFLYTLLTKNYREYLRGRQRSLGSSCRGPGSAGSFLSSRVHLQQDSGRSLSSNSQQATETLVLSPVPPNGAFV
Outline: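 Cloned mouse urotensin (mUR2) receptor membranes from Perkin Elmer Biosignal were immobilized in FlashPlate microplates using a proprietary coating. Each well got 19.5 μl buffer, then 0.5 μl of DMSO, reference ligand, or compound. Adding 5 μl of [125I]-Urotensin II, diluted to 5× final concentration in binding buffer, started binding. Plates were sealed with TopSeal-A and incubated 1 hour at room temperature in the dark. Wells were counted for 30 seconds each on a TopCount after a 60-second delay, and percentage inhibition was calculated.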

[9] = biological target: T9, Human Melanocortin (MC4) (Homo sapiens, UniProt P32245); assay: Radioligand binding, human melanocortin MC4 membranes, FlashPlate, [125I]-NDP-αMSH; details: compound at 10 μM; [125I]-NDP-αMSH
T9 construct: purchased Perkin Elmer Biosignal
Outline: as §1

[10] = biological target: T10, Human neuropeptide Y (NPY-Y1) (Homo sapiens, UniProt P25929); assay: Radioligand binding, human neuropeptide Y NPY-Y1 membranes, FlashPlate, [125I]-PYY; details: compound at 10 μM; [125I]-PYY
T10 construct: purchased Perkin Elmer Biosignal
T10 sequence (P25929 1-384): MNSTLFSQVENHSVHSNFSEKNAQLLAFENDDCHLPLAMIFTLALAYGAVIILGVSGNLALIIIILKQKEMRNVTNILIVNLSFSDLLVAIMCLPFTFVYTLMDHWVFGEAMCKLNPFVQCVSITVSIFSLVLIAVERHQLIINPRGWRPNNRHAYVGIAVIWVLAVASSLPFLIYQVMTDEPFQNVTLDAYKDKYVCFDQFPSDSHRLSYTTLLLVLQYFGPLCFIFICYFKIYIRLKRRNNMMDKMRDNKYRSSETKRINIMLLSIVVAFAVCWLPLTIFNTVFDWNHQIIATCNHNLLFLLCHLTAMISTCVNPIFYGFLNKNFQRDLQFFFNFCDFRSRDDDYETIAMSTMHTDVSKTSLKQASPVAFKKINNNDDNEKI
Outline: as §1

[11] = biological target: T11, Human neurokinin (NK1) (Homo sapiens, UniProt P25103); assay: Radioligand binding, human neurokinin NK1 membranes, filtration, [125I]-Substance P; details: compound at 10 μM; [125I]-Substance P
T11 construct: purchased Perkin Elmer Biosignal
Outline: as §2

T5 sequence (P41143 whole entry): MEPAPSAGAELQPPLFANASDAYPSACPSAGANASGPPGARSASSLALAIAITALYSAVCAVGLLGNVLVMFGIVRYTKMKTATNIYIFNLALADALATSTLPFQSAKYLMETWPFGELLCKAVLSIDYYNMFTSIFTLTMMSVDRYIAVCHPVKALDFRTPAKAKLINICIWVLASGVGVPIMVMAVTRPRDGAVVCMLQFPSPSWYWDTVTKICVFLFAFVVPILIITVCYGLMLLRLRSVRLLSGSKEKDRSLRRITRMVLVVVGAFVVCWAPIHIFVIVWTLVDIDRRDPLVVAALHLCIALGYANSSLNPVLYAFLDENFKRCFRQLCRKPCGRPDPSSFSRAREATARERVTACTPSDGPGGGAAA
T4 sequence (P41146 whole entry): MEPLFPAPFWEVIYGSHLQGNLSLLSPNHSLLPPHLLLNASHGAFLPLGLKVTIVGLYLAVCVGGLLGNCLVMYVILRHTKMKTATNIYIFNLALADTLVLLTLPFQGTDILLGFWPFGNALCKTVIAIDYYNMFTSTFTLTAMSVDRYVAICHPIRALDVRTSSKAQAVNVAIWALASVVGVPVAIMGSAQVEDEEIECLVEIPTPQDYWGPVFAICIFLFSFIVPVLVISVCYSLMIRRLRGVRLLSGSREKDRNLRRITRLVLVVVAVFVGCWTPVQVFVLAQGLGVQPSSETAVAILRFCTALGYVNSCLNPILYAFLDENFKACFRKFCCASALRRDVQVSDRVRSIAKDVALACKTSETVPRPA
T3 sequence (P41145 whole entry): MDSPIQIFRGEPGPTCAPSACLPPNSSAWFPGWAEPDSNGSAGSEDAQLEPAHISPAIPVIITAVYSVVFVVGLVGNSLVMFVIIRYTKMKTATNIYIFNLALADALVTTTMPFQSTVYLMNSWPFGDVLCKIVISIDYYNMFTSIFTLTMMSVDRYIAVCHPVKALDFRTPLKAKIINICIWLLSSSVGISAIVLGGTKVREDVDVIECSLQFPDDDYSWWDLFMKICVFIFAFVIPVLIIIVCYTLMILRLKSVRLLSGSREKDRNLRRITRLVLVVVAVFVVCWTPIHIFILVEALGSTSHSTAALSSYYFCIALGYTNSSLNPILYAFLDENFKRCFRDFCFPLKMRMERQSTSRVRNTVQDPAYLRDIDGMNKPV
T7 sequence (Q99705 whole entry): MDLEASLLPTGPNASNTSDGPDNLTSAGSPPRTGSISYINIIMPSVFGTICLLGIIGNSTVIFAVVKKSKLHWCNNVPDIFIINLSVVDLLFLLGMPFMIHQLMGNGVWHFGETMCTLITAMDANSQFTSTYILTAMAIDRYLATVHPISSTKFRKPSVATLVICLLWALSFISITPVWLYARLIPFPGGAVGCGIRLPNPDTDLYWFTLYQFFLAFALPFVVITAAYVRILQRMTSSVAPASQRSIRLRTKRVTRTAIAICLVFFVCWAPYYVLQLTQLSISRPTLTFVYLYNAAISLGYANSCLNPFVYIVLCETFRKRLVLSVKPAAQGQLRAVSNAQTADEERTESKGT
T9 sequence (P32245 whole entry): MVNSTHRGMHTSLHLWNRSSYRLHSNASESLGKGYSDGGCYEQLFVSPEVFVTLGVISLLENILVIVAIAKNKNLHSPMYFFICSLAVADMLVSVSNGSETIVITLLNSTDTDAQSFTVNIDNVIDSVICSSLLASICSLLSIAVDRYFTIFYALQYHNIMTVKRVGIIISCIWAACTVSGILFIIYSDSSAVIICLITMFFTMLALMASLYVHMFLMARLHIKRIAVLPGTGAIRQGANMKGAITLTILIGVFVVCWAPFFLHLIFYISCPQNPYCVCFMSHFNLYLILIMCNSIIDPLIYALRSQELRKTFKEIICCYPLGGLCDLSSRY
T11 sequence (P25103 whole entry): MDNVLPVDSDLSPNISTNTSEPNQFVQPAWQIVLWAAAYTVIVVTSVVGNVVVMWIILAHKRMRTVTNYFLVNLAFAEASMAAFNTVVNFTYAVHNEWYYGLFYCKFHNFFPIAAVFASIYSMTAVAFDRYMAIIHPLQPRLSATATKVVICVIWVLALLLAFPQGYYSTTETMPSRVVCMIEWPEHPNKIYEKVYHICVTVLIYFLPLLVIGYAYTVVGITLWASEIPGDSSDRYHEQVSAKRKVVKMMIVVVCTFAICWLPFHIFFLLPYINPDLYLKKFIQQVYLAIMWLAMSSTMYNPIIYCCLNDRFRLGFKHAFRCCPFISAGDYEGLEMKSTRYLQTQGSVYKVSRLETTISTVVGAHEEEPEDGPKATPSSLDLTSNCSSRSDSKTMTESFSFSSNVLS
T2 sequence (P33032 whole entry): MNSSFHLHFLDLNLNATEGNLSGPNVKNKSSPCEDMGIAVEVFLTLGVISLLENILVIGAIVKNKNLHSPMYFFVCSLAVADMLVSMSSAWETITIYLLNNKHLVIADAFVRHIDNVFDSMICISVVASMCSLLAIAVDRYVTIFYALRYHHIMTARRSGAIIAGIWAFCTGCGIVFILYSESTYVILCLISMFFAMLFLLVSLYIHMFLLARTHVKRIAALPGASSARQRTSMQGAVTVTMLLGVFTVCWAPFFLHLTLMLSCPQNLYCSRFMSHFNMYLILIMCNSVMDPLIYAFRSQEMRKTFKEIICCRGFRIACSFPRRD
T6 sequence (P41968 whole entry): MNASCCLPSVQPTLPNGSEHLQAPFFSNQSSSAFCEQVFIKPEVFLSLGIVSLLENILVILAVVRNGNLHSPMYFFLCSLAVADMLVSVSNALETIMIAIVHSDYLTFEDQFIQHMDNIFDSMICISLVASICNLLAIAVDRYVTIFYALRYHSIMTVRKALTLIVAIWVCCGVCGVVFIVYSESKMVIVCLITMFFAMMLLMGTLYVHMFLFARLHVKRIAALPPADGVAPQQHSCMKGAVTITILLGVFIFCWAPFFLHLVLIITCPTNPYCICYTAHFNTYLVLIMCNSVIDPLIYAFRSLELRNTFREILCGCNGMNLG
T1 sequence (P35372 whole entry): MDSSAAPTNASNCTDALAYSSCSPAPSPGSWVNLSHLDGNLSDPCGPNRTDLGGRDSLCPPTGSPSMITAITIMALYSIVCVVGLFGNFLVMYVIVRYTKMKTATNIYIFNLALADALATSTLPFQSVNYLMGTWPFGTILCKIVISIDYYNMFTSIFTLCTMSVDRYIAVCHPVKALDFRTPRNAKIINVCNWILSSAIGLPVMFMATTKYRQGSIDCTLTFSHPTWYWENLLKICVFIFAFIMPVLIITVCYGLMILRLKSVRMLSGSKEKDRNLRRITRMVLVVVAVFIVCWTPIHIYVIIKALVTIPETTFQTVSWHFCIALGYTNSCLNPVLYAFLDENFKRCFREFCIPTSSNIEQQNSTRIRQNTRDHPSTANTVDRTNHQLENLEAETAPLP

| SMILES | A7: inhibition of radioligand binding, human μ-opioid (MOP) [1] | A5: inhibition of radioligand binding, human melanocortin (MC5) [2] | A2: inhibition of radioligand binding, human κ-opioid (KOP) [3] | A10: inhibition of radioligand binding, human opioid (ORL1) [4] | A1: inhibition of radioligand binding, human δ-opioid (DOP) [5] | A3: inhibition of radioligand binding, human melanocortin (MC3) [6] | A6: inhibition of radioligand binding, human melanin-concentrating hormone (MCH1) [7] | A11: inhibition of radioligand binding, mouse urotensin (mUR2) [8] | A4: inhibition of radioligand binding, human melanocortin (MC4) [9] | A9: inhibition of radioligand binding, human neuropeptide Y (NPY-Y1) [10] | A8: inhibition of radioligand binding, human neurokinin (NK1) [11] | A5: inhibition of radioligand binding, human melanocortin (MC5) ([2]; 10 µM) |
| --- | --- | --- | --- | --- | --- | --- | --- | --- | --- | --- | --- | --- |
| CC(=O)N[C@H]1C(NC(=O)CCN)O[C@H](CO)[C@@H](O)[C@@H]1OCc1cccc2ccccc12 (stereo partly drawn) [compound 356] | − (“−” indicates less than 50% inhibition at 10 μM) | − (“−” indicates less than 50% inhibition at 10 μM) | − (“−” indicates less than 50% inhibition at 10 μM) | − (“−” indicates less than 50% inhibition at 10 μM) | − (“−” indicates less than 50% inhibition at 10 μM) | − (“−” indicates less than 50% inhibition at 10 μM) | − (“−” indicates less than 50% inhibition at 10 μM) | − (“−” indicates less than 50% inhibition at 10 μM) | − (“−” indicates less than 50% inhibition at 10 μM) | + (“+” indicates greater than 50% inhibition at 10 μM) | − (“−” indicates less than 50% inhibition at 10 μM) | – |
| CSC1OC(COCc2ccc(-c3ccccc3)cc2)C(O)C(OCc2ccc3ccccc3c2)C1NC(=O)CCN (stereo not drawn) [compound 313] | − (“−” indicates less than 50% inhibition at 10 μM) | + (“+” indicates greater than 50% inhibition at 10 μM) | − (“−” indicates less than 50% inhibition at 10 μM) | − (“−” indicates less than 50% inhibition at 10 μM) | − (“−” indicates less than 50% inhibition at 10 μM) | − (“−” indicates less than 50% inhibition at 10 μM) | − (“−” indicates less than 50% inhibition at 10 μM) | − (“−” indicates less than 50% inhibition at 10 μM) | − (“−” indicates less than 50% inhibition at 10 μM) | − (“−” indicates less than 50% inhibition at 10 μM) | + (“+” indicates greater than 50% inhibition at 10 μM) | – |
| CSC1OC(COCc2cccc(N)c2)C(O)C(OCc2ccccc2)C1NC(=O)Cc1ccccc1 (stereo not drawn) [compound 325] | − (“−” indicates less than 50% inhibition at 10 μM) | – | − (“−” indicates less than 50% inhibition at 10 μM) | − (“−” indicates less than 50% inhibition at 10 μM) | − (“−” indicates less than 50% inhibition at 10 μM) | − (“−” indicates less than 50% inhibition at 10 μM) | − (“−” indicates less than 50% inhibition at 10 μM) | − (“−” indicates less than 50% inhibition at 10 μM) | − (“−” indicates less than 50% inhibition at 10 μM) | − (“−” indicates less than 50% inhibition at 10 μM) | + (“+” indicates greater than 50% inhibition at 10 μM) | + (“+” indicates greater than 50% inhibition at 10 μM) |
